According to patent US20130202657A1, “FOAMS OR PARTICLES FOR APPLICATIONS SUCH AS DRUG DELIVERY” (BASF SE, priority 2010, published 2013):

Tests used:
[1] = Solubility of APIs in PVPVA (thin layer dried on glass slide, optical microscopy); type: physicochemical; details: % by mass in PVPVA; bright-field and cross-polarized optical microscopy
Method: The effect of API loading on PVPVA foams was studied next. To make API-laden polymer foams, a model API was added to the polymer before foaming. Clotrimazole and cholesterol were used in this example as model APIs. PVPVA was loaded with the API at concentrations ranging from 0% by mass to 30% by mass, as described above. The solubility of APIs in PVPVA was first tested by dissolving both the API and the polymer in a solvent, then spreading a thin layer on a glass slide to dry. […] These crystals were visible under bright-field and cross-polarized optical microscopy. […] Solid solutions of clotrimazole were obtained at up to 20% loading.

[2] = at typical operating pressures and temperatures; cited from earlier work

API loading in PVPVA at which crystals precipitate [1]: about 30%
Structure (SMILES): CC(C)CCC[C@@H](C)[C@H]1CC[C@H]2[C@@H]3CC=C4C[C@@H](O)CC[C@]4(C)[C@H]3CC[C@]12C [cholesterol]
solubility in CO2 [2]: about 2 g/l
